Assay results published in patent US5055396A, “Diagnostic methods and systems for quantifying APO AI” (Scripps Clinic and Research Foundation, priority 1987, dated 1991).

Target: MAB AI-18
Assay: Competitive RIA: inhibition of MAB AI-18 binding to solid-phase Apo AI/HDL by competitor antigen or peptide
Set-up: species or system mouse
Settings: for Immunoreactivity (concentration of peptide competitor required to achieve a B/Bo value of 0.5): competitive RIA, MAB AI-18 ascites 1:1.25×10^5, solid-phase Apo AI/HDL; for immunoreactivity values (in words): higher value represents a lower affinity; for B/Bo: background-adjusted; for ability of the peptide to immunologically mimic a native conserved epitope of Apo AI: FIG. 5, proline 99 deleted or substituted by glycine; for expression of the epitope recognized by MAB AI-18 after NaOH treatment: NaOH treated Apo AI/HDL, 18 hours at about 20 degrees C
Experimental: One hundred ul of PBS (0.15M NaCl, 0.01M NaPO4, pH 7.2) containing 10 ug/ml Apo AI/HDL were admixed to the wells of microtiter plates. The plates were maintained for 1 hour at 20 degrees C. on a rotating platform to allow the Apo AI/HDL to adhere to the wells and form solid supports. After aspirating excess liquid from the wells, 200 ul of block solution (3% BSA, 3% NGS in PBS) was admixed to each well, and the wells were maintained for 30 minutes at 20 degrees C. on a rotating platform. Subsequently, the blocking solution was removed by aspiration and the wells were washed 3 times with SPRIA buffer.
In control wells either competing antigen or antibody was replaced by PBS containing 3% BSA.
The immunoreaction admixtures were maintained about 16 hours at 4 degrees C. on a rotating platform to permit formation of solid-phase immunoreaction products. […] The labeling immunoreaction admixtures so formed were maintained for 4 hours at 4 degrees C. on a rotating platform.
[…] of serial 3 fold dilutions of each sample prepared in Table 3 were admixed as competitor in the RIA described in this Example.
Fifty microliters of the stock of 2 fold serial dilutions of the stock were used as competitor in the RIA described in this Example.

Immunoreactivity (concentration of peptide competitor required to achieve a B/Bo value of 0.5)	immunoreactivity values (in words)	CPM of 125I-labeled solid phase immunoreaction product (competitor dilution 1:3) [CPM]	B/Bo (competitor dilution 1:3)	CPM of 125I-labeled solid phase immunoreaction product (competitor dilution 1:9) [CPM]	B/Bo (competitor dilution 1:9)	CPM of 125I-labeled solid phase immunoreaction product (competitor dilution 1:27) [CPM]	B/Bo (competitor dilution 1:27)	CPM of 125I-labeled solid phase immunoreaction product (competitor dilution 1:81) [CPM]	B/Bo (competitor dilution 1:81)	CPM of 125I-labeled solid phase immunoreaction product (competitor dilution 1:243) [CPM]	B/Bo (competitor dilution 1:243)	CPM of 125I-labeled solid phase immunoreaction product (competitor dilution 1:729) [CPM]	B/Bo (competitor dilution 1:729)	CPM of 125I-labeled solid phase immunoreaction product (competitor dilution Neat) [CPM]	B/Bo (competitor dilution Neat)	expression of the epitope recognized by MAB AI-18 after NaOH treatment	slope of logit transformed competition data (competitor HDL or fresh plasma, FIG. 2)	Substance	ability of the peptide to immunologically mimic a native conserved epitope of Apo AI
		2542	0.301	4799	0.527	5786	0.718	6745	0.841	7270	0.090	7255	0.907	965	0.099			Sample A: Apo AI/HDL, no NaOH treatment control, pH 6.26 [reference compound]	
45 ug protein/ml																		AKVQPYLDDFQ [AI95-105]	
> 10,000 ug protein/ml																		AKVQGYLDDFQ [AI95-105 (G/P)]	substantially decreases the ability of the peptide to immunologically mimic a native conserved epitope
		2479	0.293	4502	0.553	6005	0.746	6618	0.825	7277	0.909	7485	0.936	1070	0.112	stable to NaOH treatments		C: NaOH treated Apo AI/HDL, 50 ul 0.01N NaOH, pH 7.04	
		305	0.016	339	0.019	497	0.039	771	0.074	1157	0.124	1891	0.218	195	0.000	decrease in expression of the epitope		G: NaOH treated Apo AI/HDL, 250 ul 1N NaOH, pH 12.85	
		1174	0.126	2746	0.328	3854	0.470	5220	0.645	6385	0.795	6917	0.863	589	0.051	decrease in expression of the epitope		D: NaOH treated Apo AI/HDL, 5 ul 1N NaOH, pH 10.67	
> 10,000 ug protein/ml	high immunoreactivity values																	VKAKVQPYL [AI93-101]	
> 10,000 ug protein/ml	high immunoreactivity values																	LDDFQKKWQEE [AI101-111]	
> 10,000 ug protein/ml																		KVQPYL (UniProt P02647 120-125, looked up, fragment) [AI96-101]	
		185	-.001	281	0.011	342	0.019	516	0.041	744	0.071	1295	0.141	222	0.004	decrease in expression of the epitope		F: NaOH treated Apo AI/HDL, 50 ul 1N NaOH, pH 11.86	
		2348	0.277	3778	0.460	5057	0.624	5868	0.729	6380	0.794	6679	0.833	1152	0.123		-2.03	Apo AI/HDL: Apo AI when it is present on HDL particles [reference compound]	
> 10,000 ug protein/ml																		AKVQYLDDFQ [AI95-105 (-P)]	substantially decreases the ability of the peptide to immunologically mimic a native conserved epitope
		2852	0.341	4399	0.540	6195	0.771	6988	0.872	7483	0.936	7406	0.926	1110	0.118	stable to NaOH treatments		B: NaOH treated Apo AI/HDL, 5 ul 0.01N NaOH, pH 6.34	
> 10,000 ug protein/ml	high immunoreactivity values																	YLDDFQ (UniProt P02647 124-129, looked up, fragment) [AI100-105]	

Substance	Immunoreactivity (concentration of peptide competitor required to achieve a B/Bo value of 0.5)	immunoreactivity values (in words)	CPM of 125I-labeled solid phase immunoreaction product (competitor dilution 1:3) [CPM]	B/Bo (competitor dilution 1:3)	CPM of 125I-labeled solid phase immunoreaction product (competitor dilution 1:9) [CPM]	B/Bo (competitor dilution 1:9)	CPM of 125I-labeled solid phase immunoreaction product (competitor dilution 1:27) [CPM]	B/Bo (competitor dilution 1:27)	CPM of 125I-labeled solid phase immunoreaction product (competitor dilution 1:81) [CPM]	B/Bo (competitor dilution 1:81)	CPM of 125I-labeled solid phase immunoreaction product (competitor dilution 1:243) [CPM]	B/Bo (competitor dilution 1:243)	CPM of 125I-labeled solid phase immunoreaction product (competitor dilution 1:729) [CPM]	B/Bo (competitor dilution 1:729)	CPM of 125I-labeled solid phase immunoreaction product (competitor dilution Neat) [CPM]	B/Bo (competitor dilution Neat)	expression of the epitope recognized by MAB AI-18 after NaOH treatment	slope of logit transformed competition data (competitor HDL or fresh plasma, FIG. 2)	ability of the peptide to immunologically mimic a native conserved epitope of Apo AI
SKDLEEVKAKVQPYL [AI87-101]	8,400 ug protein/ml	high immunoreactivity values																	
QKKWQEEMELYR [AI105-116]	> 10,000 ug protein/ml	high immunoreactivity values																	
SKDLEEVKAKVQPYLDDFQ [AI87-105]	10 ug protein/ml																		
